Patent US10281451B2, “Method of determining the viability of at least one cell” (The Regents of the University of Michigan, priority 2012, dated 2019)

System: EVPOME tissue-engineered constructs (primary human oral keratinocytes)
Assay: Quantitative histology scoring (H&E) of rapamycin-treated tissue-engineered constructs
Type: cell-based
Description: A section was sliced across the construct, near the edge, fixed in 10% phosphate buffered formalin, and embedded in paraffin for hematoxylin and eosin (H&E) histology and immunohistochemistry (IHC). All the engineered tissues were sectioned for histological assessment and some for IHC imaging. Some engineered tissues were randomly selected for punch biopsies for WST-1 assay. The remaining intact constructs were non-invasively assessed with label-free optical imaging. For each construct, three sites were randomly selected for optical imaging. A tissue-engineered construct consists of three layers: keratin, living cellular, and dermal equivalent layer. Thus, for each site, one to two optical images were measured at lower and upper depths for the proliferating basal layer and the differentiating cellular layer respectively.
10 batches tissue-engineered constructs manufactured with cells from 10 independent patients were studied: 5 batches for the rapamycin experiment and 5 batches for the thermal-stress experiment. For the rapamycin experiment, 2 nM rapamycin was added in the medium at the cell culture stage for five days prior to tissue-stage culture and/or the tissue culture stage. Therefore, a total of four experimental conditions were created in the rapamycin experiment: • 1. Control+control: no rapamycin was added to the cultures during the two stages. • 2. Control+rapa: no rapamycin was added to the first cell culture stage medium; rapamycin was added to the second tissue culture stage medium. • 3. Rapa+control: rapamycin was added to the first cell culture stage medium; no rapamycin was added to the second tissue culture stage medium. • 4. Rapa+rapa: rapamycin was added to the medium used in both the culture stages.
All H&E histology slides were assessed by a panel of three blinded expert readers. Classification criteria were previously developed and detailed, where a viability score of 1 (least viable), 2, 3, 4, or 5 (most viable) was used. The classification criteria included the basal cell layer health, the construct cellular organization, and the keratin layer structural quality. The readers individually assigned a score to each EVPOME histology slide, while blinded to the construct condition and to the other readers' scores.
Quantitative histology scoring was performed to assess tissue morphology. Two groups of cultured cells were categorized: well-growing culture and poorly-growing culture. The well-growing and the poorly-growing cultures were defined by their control+control histology scores. A control+control score >3 is defined as well-growing. A control+control score <=3 is defined as poorly growing.

With `CO[C@H]1C[C@@H]2CC[C@@H](C)[C@@](O)(O2)C(=O)C(=O)N2CCCC[C@H]2C(=O)O[C@H]([C@H](C)C[C@@H]2CC[C@@H](O)[C@H](OC)C2)CC(=O)[C@H](C)/C=C(\C)[C@@H](O)[C@@H](OC)C(=O)[C@H](C)C[C@H](C)/C=C/C=C/C=C/1C` [Rapamycin] the histology score (control+rapa construct (2 nM rapamycin in tissue culture stage only), poorly-growing culture, score 1 to 5) was “<= 3”, the histology score (rapa+control construct (2 nM rapamycin in cell culture stage only), poorly-growing culture, score 1 (least viable) to 5 (most viable)) was 4.7 and the histology score (rapa+rapa construct (2 nM rapamycin in both culture stages), poorly-growing culture, score 1 to 5) was “<= 3”. For the same compound, the histology score (well-growing culture, all four constructs incl. rapa+control, control+rapa, rapa+rapa, score 1 to 5) was greater than 3.
